The source made the active and inactive calls.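 How the source made its calls: active means compounds giving half or more protection of infected cells from virus-caused growth loss, again on retest; inactive means the rest.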
Test system: CEM cells HIV-1 protection, formazan growth assay
Experiment: NCI AIDS Antiviral Assay
Conditions: for IC50: measured here: growth of uninfected CEM cells
Outline: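 Human CEM cells, uninfected and HIV-1-infected, received five drug concentrations, and growth was read by soluble formazan assay. Compounds giving at least 50% protection were retested; reproducible 100% protection defined confirmed active.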

| SMILES | EC50 [µM] | IC50 [µM] | outcome |
| --- | --- | --- | --- |
| CC(=O)OCC1=C2C(OC(=O)C(C)C)CC3(COC(C)=O)OC3/C=C\C3(C)OC3C2OC1=O (stereo not given) | > 200 | 75.9 |  |
| C[C@]12C(=O)OC[C@H](c3ccccc3)N1C(=O)N(Cc1ccccc1)[C@@H]2CO | > 200 | > 200 |  |
| CCOC(=O)C(=Cc1ccccc1OC)C(=O)OCC | > 129 | 21.9 |  |
| NC(=O)CNC(=O)c1ccccc1SC(=O)NCCCCl | 3.72 | 64.6 |  |
| Cc1ccc2c(c1)C1(SCCC(=O)N1c1ccc(Cl)cc1)C(=O)N2 (stereo not given) | > 191 | 91.2 |  |
| COC(=O)C1(C)CCCC2(C)C3CC(CO)C(C(C)C)CC3CCC12 (stereo not given) | > 200 | > 200 |  |
| CC(=O)C1(O)C(=[N+]=[N-])C(=O)Nc2ccccc21 (stereo not given) | > 200 | 66.1 |  |
| O/N=C1/C(=C/c2ccc(F)cc2)CCCC1C(NO)c1ccc(F)cc1 (stereo not given) | > 2.88 | > 2.88 |  |
| CSC1C=C(C(C)C)CCC1(C)SC (stereo not given) | > 200 | 39.8 |  |
| C=COCCC(C(=O)OCC)C(=O)OCC | > 200 | > 200 |  |
| O=C(O)c1cccc(SS(=O)(=O)c2cccc(C(=O)O)c2)c1 | 27.5 | 162 |  |
| CCOC(=O)c1cc2ccccc2cc(C(=O)OCC)c1=O | > 200 | 34.7 |  |
| Cc1cc(S(=O)(=O)NC2=NCC(C)NN2)c(S)cc1Cl (stereo not given) | > 200 | 39.8 |  |
| Cc1cc(NCCCCCCCCNc2cc(C)nc3cc(N)ccc23)c2ccc(N)cc2n1 | > 8.13 | 4.68 |  |
| CCCCOC(=O)C1CC2OC2CC1C(=O)OCCCCOC(=O)C1CC2OC2CC1C(=O)OCCCC (stereo not given) | > 200 | 21.9 |  |
| CCOC(=O)C(C(=O)OCC)=c1sc(=C(C(=O)OCC)C(=O)OCC)s1 |  |  | inactive |
| CC(C)=CCC/C(C)=C/COC(C)(C)C1=CCC(C)CC1 (stereo not given) (tested in a mixture with another compound) | > 200 | > 200 |  |
| COc1cc(OC)c(C2(c3c(OC(C)C)c(=O)c3=O)SCCCS2)cc1OC | > 200 | 170 |  |
| CCCCCCCCCCCCC/C=C/C(O)C(CO)NC(=O)CCCCC (stereo not given) |  |  | inactive |
| Nc1nnc2ccccn12 | > 977 | > 977 |  |
| Cc1cccc(C)c1N1C(=O)C(=O)C(c2nc3ccccc3s2)/C(=N/NC(=O)c2ccccc2O)C1=O (stereo not given) | > 251 | 6.61 |  |
| CC1(C)CCCCCCC2CC2CCCCCC(C)(C)C1=O (stereo not given) | > 200 | 105 |  |

| SMILES | EC50 [µM] | IC50 [µM] | outcome |
| --- | --- | --- | --- |
| COc1ccc(/C=c2\c(=O)[nH]c3nc4ccccc4c(=O)n23)cc1 | > 200 | 34.7 |  |
| Cc1cc(C)c2c(c1)CC1(Cc3c(C)cc(C)cc3C1=O)C2=O (stereo not given) | > 100 | > 100 |  |
| C/C1=C/C(=O)O[C@@H]2C[C@@H](CC[C@H](C)/C=C\C=C\CC1)O[C@@](O)([C@@H]1CSC(=O)N1)C2 | > 2 | 0.363 |  |
| CCCCCCCC(=O)OCC1OC(n2cc(F)c(=O)[nH]c2=O)C(NC(=O)OCc2ccccc2)C(O)C1O (stereo not given) | > 64.6 | 56.2 |  |
| NC(=O)NCCCC(NC(=O)OCCCCCCn1ccc(=O)[nH]c1=O)C(=O)O (stereo not given) | > 200 | 32.4 |  |
| O=C1CC(c2ccccc2)C2(C(=O)NC(=S)NC2=O)C(c2ccccc2)C1 (stereo not given) | > 75.9 | 55 |  |
| C/C=C/C(=O)Oc1cccc2cccnc12 | > 251 | 1.51 |  |
| CCC[N+]1=C/c2ccccc2OC(=O)/C=C\1[O-] | > 200 | > 200 |  |
| CN(C)c1ccc(C(=CC=C2c3ccccc3C(=O)c3ccccc32)c2ccc(N(C)C)cc2)cc1 | > 3.09 | > 3.09 |  |
| O=C(C=Nc1ccccc1C(=O)[O-])c1ccco1.O=C(C=Nc1ccccc1C(=O)[O-])c1ccco1.[Ni+2] | > 1.91 | > 1.91 |  |
| NCCS | > 1410 | 525 |  |
| CN1Cc2cc3cc4c(cc3nc2N(C)C1)OCCO4 | > 200 | 162 |  |
| Cc1cc(=O)oc2c(CNC(CO)C(=O)O)c(O)ccc12 (stereo not given) | > 200 | > 200 |  |
| C[N+]12CCCCC1C(CN1C(=O)Cc3c4ccccc4c(c4ccccc34)CC1=O)CCC2 (stereo not given) | > 200 | > 200 |  |
| Nc1cc(Cl)c(S(=O)(=O)O)cc1Cl | > 200 | > 200 |  |
| CCC(C)C1(O)OC2CC3(C)OC(=CC3=O)/C(C)=C\C3OC(=O)C1(C)C32 (stereo not given) | > 138 | 7.59 |  |
| O=c1nc(N2CCCC2)oc2cc3ccccc3cc12 | > 200 | 89.1 |  |
| Cc1ccc(S(=O)(=O)SC(C)(C)C)cc1 | > 29.5 | 9.33 |  |
| CC12O[C@]3([C@H](C(=O)N4CCOC43C)[C@H]1Cl)[C@H]1O[C@H]12 (stereo not given in full) |  |  | inactive |
| CC1CC(=O)c2c(cc3c(-c4c(O)cc(O)c5c(O)c6c(cc45)OC(C)CC6=O)c(O)cc(O)c3c2O)O1 (stereo not given) |  |  | inactive |
| Cc1cc(NS(=O)(=O)c2ccc(Nc3c4ccccc4nc4c(C(=O)NCCO)cccc34)cc2)no1 | > 200 | 12.6 |  |
| CC(C)(C)C1=CC(=C2C(=O)C(=O)c3ccccc3C2=O)C=C(C(C)(C)C)C1=O | > 6.92 | > 6.92 |  |

| SMILES | EC50 [µM] | IC50 [µM] | outcome |
| --- | --- | --- | --- |
| [pH]1p2[pH]p3p1p3[pH]2.c1cc[c]([Ge]([c]2ccccc2)[c]2ccccc2)cc1.c1cc[c]([Ge]([c]2ccccc2)[c]2ccccc2)cc1.c1cc[c]([Ge]([c]2ccccc2)[c]2ccccc2)cc1 |  |  | inactive |
| CCCCCCCCCCCc1c(O)c(=O)c2c(oc3c(=O)c(CCCCCCCCCCC)c(O)c(=O)c3n2-c2ccc(N(C)C)cc2)c1=O | > 2.04 | > 2.04 |  |
| COc1ccc(/C=C2\CNC/C(=C\c3ccc(OC)cc3)C2=O)cc1 | > 7.41 | > 7.41 |  |
| CC(C)CC(F)(C(N)=O)C(N)=O | > 200 | > 200 |  |
| COc1cc(/C=N/c2nncs2)ccc1O | > 79.4 | > 79.4 |  |
| CC(=O)OCC(OC(C)=O)C(OC(C)=O)C(OC(C)=O)C(OC(C)=O)C(OC(C)=O)c1nc2ccccc2[nH]1 (stereo not given) | > 200 | > 200 |  |
| C[C@H](N)C(=O)N[C@@H]1[C@H]2C(=C(O)C[C@@H](O)[C@@H]2O)C(=O)O[C@@H]1C |  |  | inactive |
| COC(=O)c1oc(-c2ccccc2)c(-c2ccccc2)c1C(=O)OC | > 200 | 74.1 |  |
| CC(C)c1ccc2nc3ccc(C(=O)NCCN(C)C)cn3c(=O)c2c1 | > 200 | 12.6 |  |
| O=C1Nc2noc(=O)nc2NO1 | > 200 | > 200 |  |
| COC(=O)[C@@H](NC(=O)N(Cc1ccccc1)C[C@H](CC(C)C)NC(=O)[C@@H](NC(=O)OC(C)(C)C)C(C)C)C(C)C | > 200 | > 100 |  |
| [Ni+2].[O-]/C(=N\N=C/c1cccc(C(F)(F)F)c1)c1ccncc1.[O-]/C(=N\N=C\c1cccc(C(F)(F)F)c1)c1ccncc1 | > 100 | 15.8 |  |
| c1ccc([P+](Cc2cccc3c2Cc2ccccc2-3)(c2ccccc2)c2ccccc2)cc1 | > 200 | 0.891 |  |
| Cc1cn(C2C=CCCC2)c(=O)[nH]c1=O (stereo not given) | > 871 | > 871 |  |
| C[N+](C)(C)CC(=O)N/N=C(/CC(=O)CC(C1=C(O)c2ccccc2OC1)c1ccccc1)C(=O)Nc1cccc(Cl)c1 (stereo not given) | > 151 | > 151 |  |
| C/C=C1/C=CC2c3[nH]c4ccccc4c3CCN2C1 (stereo not given) | > 145 | 93.3 |  |
| CCSC1=C(C#N)C2(CCCCC2)C2=C(CC(C)(C)CC2=O)N1 | > 200 | > 200 |  |
| COC(C/C(=C/CO[Si](C(C)C)(C(C)C)C(C)C)C(=O)N(C(=O)OC(C)(C)C)c1ccccc1I)OC | > 200 | 77.6 |  |
| C=C1C2CC[C@@]3(CC[C@@H]4[C@@]5(C)CCC[C@@]4(C=[N+](CCOC(C)=O)C5)[C@@H]3C2)[C@@H]1OC(C)=O |  |  | inactive |
| Cc1c(C)c2ccc3occc(=O)c3c2oc1=O | > 195 | 95.5 |  |
| COC(=O)CN1C(=O)c2cccc3cc([N+](=O)[O-])cc(c23)C1=O | > 200 | 21.9 |  |
| N#CC(/C(=N\NC(=O)c1ccncc1)C(=O)Nc1ccc([N+](=O)[O-])cc1[N+](=O)[O-])c1nc(-c2ccc(Br)cc2)cs1 (stereo not given) | > 389 | > 389 |  |

| SMILES | EC50 [µM] | IC50 [µM] | outcome |
| --- | --- | --- | --- |
| COC(=O)C1=C(/C=C/C(C)=O)NC(C)=C(C(=O)OC(C)C)C1c1ccccc1Cl (stereo not given) | > 200 | 0.575 |  |
| CCCCCCCCCCCCCCCCCc1nc(C#N)c(N)o1 | > 200 | 25.1 |  |
| O=C1C(=Cc2cccc(Br)c2)C(=O)c2ccccc21 | 15.5 | 22.9 |  |
| CC(=O)C(=Cc1cccc([N+](=O)[O-])c1)C(C)=O | > 155 | 20.4 |  |
| O=c1cc2n(c(=O)[nH]1)C1OC(C(O)C1O)[C@@H]2CCO (stereo not given in full) |  |  | inactive |
| NC1=NCC(c2ccccn2)C1c1ccc(F)cc1 (stereo not given) |  |  | inactive |
| CCOC(=O)c1ccc(CSc2ccc([N+](=O)[O-])cc2)cc1 | > 6.31 | > 6.31 |  |
| CCOC(=O)C(Br)=C1OC(=O)c2ccccc2-c2ccccc21 (mixture of isomers) | > 36.3 | > 36.3 |  |
| COC(=O)c1c(C#N)c(N)nc2c1CCC2 | > 200 | > 200 |  |
| Fc1cc(-c2ncc(Cl)cc2Cl)c2cccccc1-2 | > 100 | > 100 |  |
| CCc1c(OC)oc(CCCCCCCCCC(C)C(C)=O)c(C)c1=O (stereo not given) | > 25.1 | 0.0372 |  |
| COc1cccc(OC)c1C(=O)OCc1ccccc1 | > 95.5 | > 95.5 |  |
| CC(C)(C)SSCC(N)C(=O)O (stereo not given) | > 200 | > 200 |  |
| COc1cc2c(C)cc(=O)oc2cc1O | > 457 | 148 |  |
| O=C1C=CC(c2ccccc2)(c2ccccc2)O1 | > 200 | 151 |  |
| COC(=O)C(=O)C(C(=O)C(=O)Nc1ccc([N+](=O)[O-])cc1)c1nc2ccccc2[nH]c1=O (stereo not given) | > 575 | 72.4 |  |
| CCOC(=O)c1c(SC)nc(-c2ccc(Cl)cc2)sc1=N | > 200 | 12 |  |
| O=C(O)C(=O)CC(=O)c1ccc(Br)cc1 | > 200 |  |  |
| O=C(Nc1nccs1)c1cc(C2=CC=CC([N+](=O)[O-])C=C2)nc(=S)[nH]1 (stereo not given) | > 95.5 | > 95.5 |  |
